US20230203043A1, “NOVEL IMIDAZOPYRAZINE DERIVATIVES” (Hoffmann-La Roche Inc., priority 2020, published 2023)
Where a name gives a salt, the structure may show the parent alone. Read-outs that look alike come from different tables or passages of the source.

Tested on: Acinetobacter baumannii ATCC17961
Test: Antimicrobial susceptibility testing: 90% growth inhibitory concentration (IC90) determination in Iso-Sensitest broth, OD600 growth
Format: cell-based
Outline: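 Growth inhibition is calculated during the logarithmic phase from OD600 readings taken every 20 minutes across 16 h at 35±2° C. Bacteria at ~5×10^(5) CFU/ml face twofold dilution series (e.g. 50 to 0.097 μM final).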

[1] = Acinetobacter baumannii, ATCC17961, 16 h, read-out: A. baumannii ATCC 17961 IC90 (uM), strain ATCC 17961, OD600 growth over 16 h
[2] = strain ATCC 17961, OD600 growth over 16 h, read-out: A. baumannii ATCC 17961 IC90

## O=C(c1ccc(Nc2nccn3c(-c4c[nH]nc4C(F)(F)F)cnc23)cc1Cl)N1CCN(C(=O)[C@@H]2C[C@@H](O)CN2)CC1 [Example 448, [2-chloro-4-[[3-[3-(trifluoromethyl)-1H-pyrazol-4-yl]imidazo[1,2-a]pyrazin-8-yl]amino]phenyl]-[4-[(2S,4R)-4-hydroxypyrrolidine-2-carbonyl]piperazin-1-yl]methanone formate]
[1]
  IC90: 0.235 µM

## O=C(c1ccc(Nc2nccn3c(-c4c[nH]nc4C(F)(F)F)cnc23)cc1Cl)N1CCN(C(=O)C2(O)CCNCC2)CC1 [Example 449, [2-chloro-4-[[3-[3-(trifluoromethyl)-1H-pyrazol-4-yl]imidazo[1,2-a]pyrazin-8-yl]amino]phenyl]-[4-(4-hydroxypiperidine-4-carbonyl)piperazin-1-yl]methanone formate]
[1]
  IC90: 0.301 µM

## O=C(c1ccc(Nc2nccn3c(-c4c[nH]nc4C(F)(F)F)cnc23)cc1Cl)N1CCN(C(=O)[C@@H]2CCNC[C@@H]2O)CC1 [Example 450, [2-chloro-4-[[3-[3-(trifluoromethyl)-1H-pyrazol-4-yl]imidazo[1,2-a]pyrazin-8-yl]amino]phenyl]-[4-[(3R,4R)-3-hydroxypiperidine-4-carbonyl]piperazin-1-yl]methanone formate]
[1]
  IC90: 0.306 µM

## O=C(c1ccc(Nc2nccn3c(-c4c[nH]nc4C(F)(F)F)cnc23)cc1Cl)N1CCN(C(=O)[C@H]2CCNC[C@H]2O)CC1 [Example 451, [2-chloro-4-[[3-[3-(trifluoromethyl)-1H-pyrazol-4-yl]imidazo[1,2-a]pyrazin-8-yl]amino]phenyl]-[4-[(3S,4S)-3-hydroxypiperidine-4-carbonyl]piperazin-1-yl]methanone formate]
[1]
  IC90: 0.365 µM

## O=C(c1ccc(Nc2nccn3c(-c4c[nH]nc4C(F)(F)F)cnc23)cc1Cl)N1CCN(C(=O)[C@H]2C[C@H](O)CN2)CC1 [Example 452, [2-chloro-4-[[3-[3-(trifluoromethyl)-1H-pyrazol-4-yl]imidazo[1,2-a]pyrazin-8-yl]amino]phenyl]-[4-[(2R,4S)-4-hydroxypyrrolidine-2-carbonyl]piperazin-1-yl]methanone formate]
[1]
  IC90: 0.401 µM

## O=C(c1ccc(Nc2nccn3c(-c4c[nH]nc4C(F)(F)F)cnc23)cc1Cl)N1CCN(C(=O)[C@H]2CCNC[C@@H]2O)CC1 [Example 453, [2-chloro-4-[[3-[3-(trifluoromethyl)-1H-pyrazol-4-yl]imidazo[1,2-a]pyrazin-8-yl]amino]phenyl]-[4-[(3R,4S)-3-hydroxypiperidine-4-carbonyl]piperazin-1-yl]methanone formate]
[1]
  IC90: 0.586 µM

## O=C(c1ccc(Nc2nccn3c(-c4c[nH]nc4C(F)(F)F)cnc23)cc1Cl)N1CCN(C(=O)[C@@H]2CCNC[C@H]2O)CC1 [Example 454, [2-chloro-4-[[3-[3-(trifluoromethyl)-1H-pyrazol-4-yl]imidazo[1,2-a]pyrazin-8-yl]amino]phenyl]-[4-[(3S,4R)-3-hydroxypiperidine-4-carbonyl]piperazin-1-yl]methanone formate]
[1]
  IC90: 0.778 µM

## Cc1cc(Nc2nccn3c(-c4cn(C)nc4C(F)(F)F)cnc23)ccc1C(=O)NCCCNC(=O)[C@@H]1C[C@@H](O)CN1 [Example 455, formic acid; (2S,4R)-4-hydroxy-N-[3-[[2-methyl-4-[[3-[1-methyl-3-(trifluoromethyl)pyrazol-4-yl]imidazo[1,2-a]pyrazin-8-yl]amino]benzoyl]amino]propyl]pyrrolidine-2-carboxamide]
[1]
  IC90: 1.21 µM

## Cc1cc(Nc2nccn3c(-c4cn(C)nc4C(F)(F)F)cnc23)ccc1C(=O)NCCNC(=O)[C@@H]1C[C@@H](O)CN1 [Example 456, formic acid; (2S,4R)-4-hydroxy-N-[2-[[2-methyl-4-[[3-[1-methyl-3-(trifluoromethyl)pyrazol-4-yl]imidazo[1,2-a]pyrazin-8-yl]amino]benzoyl]amino]ethyl]pyrrolidine-2-carboxamide]
[1]
  IC90: 2.74 µM

## Cc1cc(Nc2nccn3c(-c4c[nH]nc4C(F)(F)F)cnc23)ccc1C(=O)N1CCN(C(=O)N[C@@H]2CNC[C@H]2O)CC1 [Example 457, formic acid, N-[(3R,4R)-4-hydroxypyrrolidin-3-yl]-4-[2-methyl-4-[[3-[3-(trifluoromethyl)-1H-pyrazol-4-yl]imidazo[1,2-a]pyrazin-8-yl]amino]benzoyl]piperazine-1-carboxamide]
[2]
  IC90: 0.442 µM

## Cc1cc(Nc2nccn3c(-c4c[nH]nc4C(F)(F)F)cnc23)ccc1C(=O)N1CCN(C(=O)N[C@H]2CNC[C@@H]2O)CC1 [Example 458, formic acid, N-[(3S,4S)-4-hydroxyppyrrolidin-3-yl]-4-[2-methyl-4-[[3-[3-(trifluoromethyl)-1H-pyrazol-4-yl]imidazo[1,2-a]pyrazin-8-yl]amino]benzoyl]piperazine-1-carboxamide]
[2]
  IC90: 0.551 µM

## Cc1cc(Nc2nccn3c(-c4c[nH]nc4C(F)(F)F)cnc23)ccc1C(=O)N1CCN(C(=O)[C@@H]2C[C@@H](O)CN2)CC1 [Example 459, formic acid; [4-[(2S,4R)-4-hydroxypyrrolidine-2-carbonyl)piperazin-1-yl]-[2-methyl-4-[[3-[3-(trifluoromethyl)-1H-pyrazol-4-yl]imidazo[1,2-a]pyrazin-8-yl]amino]phenyl]methanone]
read-out: A. baumannii ATCC 17961 IC90, strain ATCC 17961, OD600 growth over 16 h
  IC90: 0.762 µM

## Cc1cc(Nc2nccn3c(-c4c[nH]nc4C(F)(F)F)cnc23)ccc1C(=O)N1CCN(C(=O)C2(O)CCNCC2)CC1 [Example 460, formic acid; [4-(4-hydroxypiperidine-4-carbonyl)piperazin-1-yl]-[2-methyl-4-[[3-[3-(trifluoromethyl)-1H-pyrazol-4-yl]imidazo[1,2-a]pyrazin-8-yl]amino]phenyl]methanone]
[1]
  IC90: 0.896 µM

## Cc1cc(Nc2nccn3c(-c4c[nH]nc4C(F)(F)F)cnc23)ccc1C(=O)N1CCN(C(=O)[C@@H]2CCNC[C@@H]2O)CC1 [Example 461, formic acid; [4-[(3R,4R)-3-hydroxypiperidine-4-carbonyl]piperazin-1-yl]-[2-methyl-4-[[3-[3-(trifluoromethyl)-1H-pyrazol-4-yl]imidazo[1,2-a]pyrazin-8-yl]amino]phenyl]methanone]
[1]
  IC90: 0.926 µM

## Cc1cc(Nc2nccn3c(-c4c[nH]nc4C(F)(F)F)cnc23)ccc1C(=O)N1CCN(C(=O)[C@@H]2C[C@](C)(O)CN2)CC1 [Example 462, formic acid; [4-[(2S,4S)-4-hydroxy-4-methylpyrrolidine-2-carbonyl]piperazin-1-yl]-[2-methyl-4-[[3-[3-(trifluoromethyl)-1H-pyrazol-4-yl]imidazo[1,2-a]pyrazin-8-yl]amino]phenyl]methanone]
[1]
  IC90: 0.964 µM

## Cc1cc(Nc2nccn3c(-c4c[nH]nc4C(F)(F)F)cnc23)ccc1C(=O)N1CCN(C(=O)[C@H]2CCNC[C@H]2O)CC1 [Example 463, formic acid; [4-[(3S,4S)-3-hydroxypiperidine-4-carbonyl]piperazin-1-yl]-[2-methyl-4-[[3-[3-(trifluoromethyl)-1H-pyrazol-4-yl]imidazo[1,2-a]pyrazin-8-yl]amino]phenyl]methanone]
[1]
  IC90: 0.998 µM

## Cc1cc(Nc2nccn3c(-c4c[nH]nc4C(F)(F)F)cnc23)ccc1C(=O)N1CCN(C(=O)[C@@H]2CCNC[C@H]2O)CC1 [Example 464, formic acid; [4-[(3S,4R)-3-hydroxypiperidine-4-carbonyl]piperazin-1-yl]-[2-methyl-4-[[3-[3-(trifluoromethyl)-1H-pyrazol-4-yl]imidazo[1,2-a]pyrazin-8-yl]amino]phenyl]methanone]
[1]
  IC90: 1.26 µM
